The compounds below were run against human PDE4D catalytic domain (UniProt no. Q08499) (Homo sapiens (Human), UniProt Q08499) (assay: PDE4 assay (TR-FRET, FAM-cAMP cleavage)). Details: human PDE4D catalytic domain; molar concentration giving 50% inhibition of substrate cleavage; read-out: PDE4 IC50 range.
Chain of human PDE4D catalytic domain (Q08499 380-740 limits assumed): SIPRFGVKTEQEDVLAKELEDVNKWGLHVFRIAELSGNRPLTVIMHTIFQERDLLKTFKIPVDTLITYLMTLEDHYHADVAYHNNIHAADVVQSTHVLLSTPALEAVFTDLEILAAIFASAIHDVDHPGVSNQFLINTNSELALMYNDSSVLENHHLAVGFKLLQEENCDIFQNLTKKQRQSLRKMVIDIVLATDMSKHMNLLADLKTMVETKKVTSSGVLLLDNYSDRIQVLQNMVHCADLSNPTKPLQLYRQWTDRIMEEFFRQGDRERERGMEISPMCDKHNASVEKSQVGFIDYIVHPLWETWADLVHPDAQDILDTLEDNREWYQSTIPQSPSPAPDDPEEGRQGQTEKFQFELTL
Format: biochemical
How it was run: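 PDE4D catalytic domain ([…]) was incubated with unlabelled cAMP plus FAM-cAMP and titrated compound, stopped with binding buffer of metal-ion nanoparticles and Tb donor. AMP generation read by TR-FRET; IC50 as 50% inhibition of cleavage versus controls, reported as nM ranges.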
Compound CCc1nn(C[C@@H](C)COC(=O)c2ccc(C(F)(F)F)c(C(F)(F)F)c2)c2c1C(=O)NCC1(CCOCC1)C2 [Example 247, [(2R)-3-(3-ethyl-4-oxo-spiro[6,8-dihydro-5H-pyrazolo[4,3-c]azepine-7,4′-tetrahydropyran]-1-yl)-2-methyl-propyl] 3,4-bis(trifluoromethyl)benzoate] has an IC50 of under 100 nM. In the case of CCc1nn(C[C@@H](C)COC(=O)c2cc(F)ccc2C)c2c1C(=O)NCC1(CCOCC1)C2 [Example 173, [(2R)-3-(3-ethyl-4-oxo-spiro[6,8-dihydro-5H-pyrazolo[4,3-c]azepine-7,4′-tetrahydropyran]-1-yl)-2-methyl-propyl] 5-fluoro-2-methyl-benzoate], the IC50 is reported as under 100 nM. With CCc1nn(C[C@@H](C)COC(=O)C(C)C)c2c1C(=O)NCC1(CCOCC1)C2 [Example 160, [(2R)-3-(3-ethyl-4-oxo-spiro[6,8-dihydro-5H-pyrazolo[4,3-c]azepine-7,4′-tetrahydropyran]-1-yl)-2-methyl-propyl] 2-methylpropanoate] the IC50 was under 100 nM. CCc1nn(C[C@@H](C)COC(=O)c2ccc(C(C)=O)cc2)c2c1C(=O)NCC1(CCOCC1)C2 [Example 180, [(2R)-3-(3-ethyl-4-oxo-spiro[6,8-dihydro-5H-pyrazolo[4,3-c]azepine-7,4′-tetrahydropyran]-1-yl)-2-methyl-propyl] 4-acetylbenzoate] was tested, and the IC50 was under 100 nM. Compound CCNC(=O)c1ccc(C(=O)OCCCn2nc(CC)c3c2CC2(CCOCC2)CNC3=O)cc1 [Example 142, 3-(3-ethyl-4-oxo-spiro[6,8-dihydro-5H-pyrazolo[4,3-c]azepine-7,4′-tetrahydropyran]-1-yl)propyl 4-(ethylcarbamoyl)benzoate] has an IC50 of under 100 nM. CCc1nn(C[C@@H](C)COC(=O)c2cccc(S(=O)(=O)N3CCCC3)c2)c2c1C(=O)NCC1(CCOCC1)C2 [Example 246, [(2R)-3-(3-ethyl-4-oxo-spiro[6,8-dihydro-5H-pyrazolo[4,3-c]azepine-7,4′-tetrahydropyran]-1-yl)-2-methyl-propyl] 3-pyrrolidin-1-ylsulfonylbenzoate] was tested, and the IC50 was under 100 nM. For CCc1nn(CCCOC(=O)c2ccc(C(=O)N3CCCC3)cc2)c2c1C(=O)NCC1(CCOCC1)C2 [Example 145, 3-(3-ethyl-4-oxo-spiro[6,8-dihydro-5H-pyrazolo[4,3-c]azepine-7,4′-tetrahydropyran]-1-yl)propyl 4-(pyrrolidine-1-carbonyl)benzoate], the IC50 was 100 to 500 nM. CCc1nn(CCCOC(=O)c2ccc(Cl)c(C(F)(F)F)c2)c2c1C(=O)NCC1(CCOCC1)C2 [Example 122, 3-(3-ethyl-4-oxo-spiro[6,8-dihydro-5H-pyrazolo[4,3-c]azepine-7,4′-tetrahydropyran]-1-yl)propyl 4-chloro-3-(trifluoromethyl)benzoate] showed an IC50 of under 100 nM. Compound CCc1nn(C[C@@H](C)COC(=O)c2ccc(C(=O)NC(C)C)cc2)c2c1C(=O)NCC1(CCOCC1)C2 [Example 256, [(2R)-3-(3-ethyl-4-oxo-spiro[6,8-dihydro-5H-pyrazolo[4,3-c]azepine-7,4′-tetrahydropyran]-1-yl)-2-methyl-propyl] 4-(isopropylcarbamoyl)benzoate] has an IC50 of under 100 nM. Work on CCc1nn(C[C@@H](C)COC(=O)c2ccc(F)c(C#N)c2)c2c1C(=O)NCC1(CCOCC1)C2 [Example 184, [(2R)-3-(3-ethyl-4-oxo-spiro[6,8-dihydro-5H-pyrazolo[4,3-c]azepine-7,4′-tetrahydropyran]-1-yl)-2-methyl-propyl] 3-cyano-4-fluoro-benzoate] yielded an IC50 of under 100 nM. With CCc1nn(CCCOC(=O)c2ccc(C(=O)N3CCN(C)CC3)cc2)c2c1C(=O)NCC1(CCOCC1)C2 [Example 148, 3-(3-ethyl-4-oxo-spiro[6,8-dihydro-5H-pyrazolo[4,3-c]azepine-7,4′-tetrahydropyran]-1-yl)propyl 4-(4-methylpiperazine-1-carbonyl)benzoate] the IC50 was 100 to 500 nM. Work on CCc1nn(CCCOC(=O)c2ccc(S(=O)(=O)C(C)C)cc2)c2c1C(=O)NCC1(CCOCC1)C2 [Example 130, 3-(3-ethyl-4-oxo-spiro[6,8-dihydro-5H-pyrazolo[4,3-c]azepine-7,4′-tetrahydropyran]-1-yl)propyl 4-isopropylsulfonylbenzoate] yielded an IC50 of under 100 nM. Work on CCc1nn(C[C@@H](C)COC(=O)c2cccc(S(=O)(=O)N3CCOCC3)c2)c2c1C(=O)NCC1(CCOCC1)C2 [Example 248, [(2R)-3-(3-ethyl-4-oxo-spiro[6,8-dihydro-5H-pyrazolo[4,3-c]azepine-7,4′-tetrahydropyran]-1-yl)-2-methyl-propyl] 3-morpholinosulfonylbenzoate] yielded an IC50 of under 100 nM. Work on CCc1nn(CCCOC(=O)c2c(F)cccc2C(F)(F)F)c2c1C(=O)NCC1(CCOCC1)C2 [Example 107, 3-(3-ethyl-4-oxo-spiro[6,8-dihydro-5H-pyrazolo[4,3-c]azepine-7,4′-tetrahydropyran]-1-yl)propyl 2-fluoro-6-(trifluoromethyl)benzoate] yielded an IC50 of under 100 nM. For CCc1nn(CCCOC(=O)c2cccc(C)c2)c2c1C(=O)NCC1(CCOCC1)C2 [Example 15, 3-(3-ethyl-4-oxo-spiro[6,8-dihydro-5H-pyrazolo[4,3-c]azepine-7,4′-tetrahydropyran]-1-yl)propyl 3-methylbenzoate], the IC50 was under 100 nM. Compound CCc1nn(CCCOC(=O)c2cc(OC)ccc2F)c2c1C(=O)NCC1(CCOCC1)C2 [Example 67, 3-(3-ethyl-4-oxo-spiro[6,8-dihydro-5H-pyrazolo[4,3-c]azepine-7,4′-tetrahydropyran]-1-yl)propyl 2-fluoro-5-methoxy-benzoate] has an IC50 of under 100 nM. Compound CCc1nn(CCCOC(=O)c2c(F)cccc2OC)c2c1C(=O)NCC1(CCOCC1)C2 [Example 69, 3-(3-ethyl-4-oxo-spiro[6,8-dihydro-5H-pyrazolo[4,3-c]azepine-7,4′-tetrahydropyran]-1-yl)propyl 2-fluoro-6-methoxy-benzoate] has an IC50 of under 100 nM. In the case of CCc1nn(CCCOC(=O)c2cc(F)ccc2Cl)c2c1C(=O)NCC1(CCOCC1)C2 [Example 82, 3-(3-ethyl-4-oxo-spiro[6,8-dihydro-5H-pyrazolo[4,3-c]azepine-7,4′-tetrahydropyran]-1-yl)propyl 2-chloro-5-fluoro-benzoate], the IC50 is reported as under 100 nM. For CCc1nn(C[C@@H](C)COC(=O)c2c(F)cccc2F)c2c1C(=O)NCC1(CCOCC1)C2 [Example 176, [(2R)-3-(3-ethyl-4-oxo-spiro[6,8-dihydro-5H-pyrazolo[4,3-c]azepine-7,4′-tetrahydropyran]-1-yl)-2-methyl-propyl] 2,6-difluorobenzoate], the IC50 was under 100 nM.

Same assay, conditions: read-out: PDE4 IC50 range
Compound CCc1nn(CCCCOC(=O)c2ccc(C(=O)NC)cc2)c2c1C(=O)NCC1(CCOCC1)C2 [Example 379, 4-(3-ethyl-4-oxo-spiro[6,8-dihydro-5H-pyrazolo[4,3-c]azepine-7,4′-tetrahydropyran]-1-yl)butyl 4-(methylcarbamoyl)benzoate] has an IC50 of 100 to 500 nM. CCc1nn(CCCCOC(=O)c2ccc(S(=O)(=O)NC)cc2)c2c1C(=O)NCC1(CCOCC1)C2 [Example 373, 4-(3-ethyl-4-oxo-spiro[6,8-dihydro-5H-pyrazolo[4,3-c]azepine-7,4′-tetrahydropyran]-1-yl)butyl 4-(methylsulfamoyl)benzoate] was tested, and the IC50 was 100 to 500 nM. CCc1nn(CC(C)(C)COC(=O)c2cccc(S(=O)(=O)C(C)C)c2)c2c1C(=O)NCC1(CCOCC1)C2 [Example 316, [3-(3-ethyl-4-oxo-spiro[6,8-dihydro-5H-pyrazolo[4,3-c]azepine-7,4′-tetrahydropyran]-1-yl)-2,2-dimethyl-propyl] 3-isopropylsulfonylbenzoate] was tested, and the IC50 was under 100 nM. CCc1nn(CCCCOC(=O)c2ccc(S(C)(=O)=O)cc2)c2c1C(=O)NCC1(CCOCC1)C2 [Example 370, 4-(3-ethyl-4-oxo-spiro[6,8-dihydro-5H-pyrazolo[4,3-c]azepine-7,4′-tetrahydropyran]-1-yl)butyl 4-methylsulfonylbenzoate] showed an IC50 of 100 to 500 nM. CCc1nn(C[C@@H](C)COC(=O)c2cccc(C(=O)N3CCN(C(C)=O)CC3)c2)c2c1C(=O)NCC1(CCOCC1)C2 [Example 273, [(2R)-3-(3-ethyl-4-oxo-spiro[6,8-dihydro-5H-pyrazolo[4,3-c]azepine-7,4′-tetrahydropyran]-l-yl)-2-methyl-propyl] 3-(4-acetylpiperazine-1-carbonyl)benzoate] showed an IC50 of under 100 nM. Compound CCc1nn(C[C@H](C)COC(=O)c2cccc(F)c2)c2c1C(=O)NCC1(CCOCC1)C2 [Example 276, [(2S)-3-(3-ethyl-4-oxo-spiro[6,8-dihydro-5H-pyrazolo[4,3-c]azepine-7,4′-tetrahydropyran]-1-yl)-2-methyl-propyl] 3-fluorobenzoate] has an IC50 of under 100 nM. Work on CCc1nn(CC(C)(C)COC(=O)c2ccc(S(=O)(=O)C(C)C)cc2)c2c1C(=O)NCC1(CCOCC1)C2 [Example 317, [3-(3-ethyl-4-oxo-spiro[6,8-dihydro-5H-pyrazolo[4,3-c]azepine-7,4′-tetrahydropyran]-1-yl)-2,2-dimethyl-propyl] 4-isopropylsulfonylbenzoate] yielded an IC50 of under 100 nM. For CCOc1cccc(C(=O)OCC(C)(C)Cn2nc(CC)c3c2CC2(CCOCC2)CNC3=O)c1 [Example 299, [3-(3-ethyl-4-oxo-spiro[6,8-dihydro-5H-pyrazolo[4,3-c]azepine-7,4′-tetrahydropyran]-1-yl)-2,2-dimethyl-propyl] 3-ethoxybenzoate], the IC50 was under 100 nM. CCc1nn(C[C@H](C)COC(=O)c2ccc(F)cc2)c2c1C(=O)NCC1(CCOCC1)C2 [Example 277, [(2S)-3-(3-ethyl-4-oxo-spiro[6,8-dihydro-5H-pyrazolo[4,3-c]azepine-7,4′-tetrahydropyran]-1-yl)-2-methyl-propyl] 4-fluorobenzoate] was tested, and the IC50 was under 100 nM. Work on CCc1nn(CCCCOC(=O)c2ccc(C(=O)N(C)C)cc2)c2c1C(=O)NCC1(CCOCC1)C2 [Example 380, 4-(3-ethyl-4-oxo-spiro[6,8-dihydro-5H-pyrazolo[4,3-c]azepine-7,4′-tetrahydropyran]-1-yl)butyl 4-(dimethylcarbamoyl)benzoate] yielded an IC50 of 100 to 500 nM.
